# Measurements: patent EP4512806A1, “MOLECULAR GLUE DEGRADERS AND USES THEREOF” (Mablink Bioscience, priority 2023, dated 2025)
# Experiments:
# [1] = tested on: panel of human cancer cell lines; assay: In vitro cytotoxicity assay (MTT), panel of cell lines; assay type: cell-based
# Text: Human cancer cell lines used in the present project were purchased from either the American Type Culture Collection (ATCC), The Leibniz Institute DSMZ German Collection of Microorganisms and Cell Cultures GmbH (DSMZ) or the European Collection of Authenticated Cell Cultures (ECACC). For use in experiments, cells were cultivated following good and established cell culture practices, following instructions from the original ATCC/DSMZ/ECACC supplier for cell culture media & supplement, cryopreservation, and subculturing procedures. Cells were incubated under a 5% CO2 atmosphere at 37°C for no longer than 2 months.
# In vitro cytotoxicity of compounds of the disclosure was assessed on several cancerous human cell lines. Cells were plated in 96-well plates at an appropriate density depending on the cell line (between 1000 and 10 000 cells/well in 100µL of appropriate culture media) and incubated at 37°C for 24 hours. Serial dilutions of the tested compound previously dissolved in culture media (50µL) were added, and incubation was carried at 37°C out for 6 days. MTT (5mg/mL in PBS, 20µL, Sigma-Aldrich) was added into the wells, and incubation was continued for 1 to 4 hours at 37°C. Culture media was then carefully removed, and well content was homogeneously dissolved with acidified isopropanol. Absorbance values were measured on a microplate reader using a wavelength of 570 nm (with a reference wavelength of 690 nm). The IC50 concentration values compared to untreated control cells were determined using inhibition dose response curve fitting (GraphPad Prism 9). Exatecan mesylate (cat#HY-13631A) and CR8 (CAS# 294646-77-8; cat#HY-18340) were purchased from MedChemExpress (China).
# Cyclin K = assay: CycK mRNA RT-qPCR in JIMT-1 cells; assay type: cell-based, human; conditions: 1µM final concentration, 2h
# Protocol: 1×10^6 JIMT-1 cells were plated in 3mL of DMEM/FBS 90:10 (v/v) in 6-well plates and incubated overnight. Cells were treated with the compound 2384 of the invention, with CR8 (a known molecular glue degrader that depletes CycK) or with the proteasome inhibitor MG-132 (MedChemExpress, Cat HY-13259) for 2h. RNA was extracted using the QIAamp RNeasy Mini Kit (cat#74106, Qiagen) according to the manufacturer's protocol. Reverse transcription was performed using SuperScripr™ IV reverse transcriptase (cat#LT02241, Invitrogen). Quantitative PCR was performed using a No ROX Sybr Master Mix in the LightCycler 480 Real-Time PCR system (Roche Life Science).
# Cyclin K forward ([…]) and reverse ([…]) primers were purchased from Eurogentec. Gene expression was normalized using ribosomal 28S as the housekeeping gene.
compound,measurement,setting,value
N[C@H]1CC[C@H](Nc2nc(NCc3ccc(-c4ccccn4)cc3)n3ncc(Br)c3n2)CC1 [Compound 2384],in vitro cytotoxic potency,"[1]; panel of human cancer cell lines, in words",low nanomolar potencies
same,cytotoxic potency compared to isopropyl counterpart,"[1]; side-by-side comparison, Figures 1A/1B and 2A/2B",systematically more potent
same,CycK mRNA level,Cyclin K,not at the CycK mRNA level
